Entries after “also recorded” stand apart in the source; their conditions may differ.
Experiments:
[1] = test system: anaesthetised rats; experiment: Arterial pressure and heart rate in anaesthetised rats after intravenous injection; format: in vivo, rat; conditions: for change in heart rate (HR) / change in mean arterial pressure (MAP): intravenous, anaesthetised rats
Method: A unit dosage of an aqueous solution of 3-hydroxyflavone-3-hemiadipate (15) was administered to a group of male anesthetized Sprague Dawley rats intravenously and the blood pressure monitored over a period of time.
Male Sprague-Dawley rats (250-350 g) were anaesthetised with pentobarbitone sodium (60 mg kg^−1, ip). The trachea was isolated and cannulated with polyethylene tracheal tube (I.D. 2.0 mm), and the rat was allowed to breathe spontaneously.
The right carotid artery was cannulated and connected with a heparinised saline filled cannula (O.D. 0.75, I.D, 0.58 mm) and connected to a pressure transducer. Mean and phasic arterial pressure were continuously measured and recorded on a polygraph. The heart rate, was derived from the phasic arterial pressure using a tachometer.
DiOHF3HA ([…]) was injected intravenously, allowing at least 30 min between injections, and the peak changes in mean arterial pressure and heart rate measured. […] In a separate group of experiments ACh (0.3 mg/kg iv) and phenylephrine (PE, […]) were injected before and 30 minutes after DiOHF3HA (3 mg/kg iv), a time when arterial pressure and heart rate had returned to control levels. […]

[2] = test system: anaesthetised sheep; experiment: Myocardial ischaemia and reperfusion injury in anaesthetised sheep; format: in vivo; conditions: higher dose: DiOHF3HA 6.7 mg/kg, DiOHF 5 mg/kg i.v.; 1 h ischaemia, 3 h reperfusion
[3] = test system: anaesthetised sheep; experiment: as above; format: in vivo; conditions: for infarct size normalized to the area at risk (IS/AR): lower dose: DiOHF3HA 2.7 mg/kg, DiOHF 2 mg/kg i.v.; for effect on infarct size / cardioprotection: i.v. in aqueous solution after 30 min of ischaemia
Method: The ability of the synthetic flavonol, 3′,4′ dihydroxy flavonol adipate (DiOHF3HA) to prevent myocardial ischaemia and reperfusion injury in anaesthetised Sheep was assessed.
Five groups of anaesthetised adult merino sheep (35-45 kg wethers) were examined:
Anaesthesia was induced by intravenous thiopentone sodium (15 mg/kg) and following tracheal intubation was maintained by isoflurane (1.5-2%). A catheter was inserted in the right facial artery for arterial blood sampling and monitoring arterial pressure. Intravenous infusions were made via a catheter inserted into the jugular vein. The heart was exposed through a left thoracotomy performed at the fourth intercostal space. A 4F catheter-tipped manometer was inserted through the left atrium into the left ventricle to measure left ventricular pressure (LVP). An additional silastic cannula was inserted into the left atrial appendage for the injection of lignocaine and for infusion of Evans Blue. The left anterior descending coronary artery (LAD) was dissected from the epicardium immediately distal to its second diagonal branch, and a transit-time 2 mm flow probe was placed around it to monitor the LAD blood flow. A silk suture was passed under the LAD proximal to the probe and both ends of the silk were threaded through a plastic tube to form a vascular snare.
The animals were allowed to stabilise for 10-15 minutes after the completion of the surgical procedure. Sheep were then randomly divided into different treatment groups. All sheep had 30 minute baseline recording followed by 1 hour ischaemia and 3 hours reperfusion.
During the course of the experiment, haemodynamic measurements were recorded at 5 minute intervals and blood samples were taken at designated time-points. After 30 minutes of ischaemia, flavonol treatment was administered. DiOHF was dissolved in 2 ml DMSO plus 14 ml polyethylene glycol:water (1:1). DiOHF3HA was dissolved in 20 ml 0.1M Na2CO3. The drugs were given at 1 ml/min i.v. The two doses of DiOHF3HA (2.7 mg/kg and 6.6 mg/kg) were chosen to achieve equivalent molar doses to the parent DiOHF compound (at 2 mg/kg and 5 mg/kg, respectively). […] Lignocaine was used, as required, to ameliorate arrhythmias.
The area of myocardium at risk and infarct size were delineated by Evan's blue and triphenyltetrazolium chloride (TTC) staining. After 3 hours of reperfusion, the LAD was re-occluded at the original occlusion site. Immediately after intravenous injection of pentobarbitone (100 mg kg^−1) to arrest the heart, Evan's blue dye (1.5%, 40 ml) was injected into the left atrium to define the myocardium at risk. The heart was rapidly removed and the left ventricle was sliced into transverse sections about 1 cm thick. The unstained risk area was traced onto the same transparencies. The sections were then incubated in 0.1 M sodium phosphate buffer containing 1% TTC for 20 min (37° C., pH 7.4). The infarcted area was traced onto transparencies. The area of myocardium at risk, and infarct size, were measured by computerised planimetry. The former was expressed as a percentage of total left ventricular volume (AR/LV %) and infarct size was expressed as a percentage of the area of myocardium at risk (IS/AR %).
Arterial blood samples (5 ml) were collected into chilled heparinised tubes at baseline, during ischaemia and at three time points during the reperfusion period (1 hour, 2 hour and 3 hour). Following centrifugation at 4° C., plasma samples were stored at −20° C. until measurement to determine levels of lactate dehydrogenase and creatinine kinase.

[4] = test system: endothelium intact aortic rings; experiment: Ca2+-induced contraction of rat aortic rings in Ca2+-free high-K+ solution; format: cell-based
Method: To determine the effect of flavonoids on responses to the influx of extracellular Ca^2+, contractile responses to exogenous application of Ca^2+ were examined in the presence of flavonoids in Ca^2+-free high-K^+ solution (60 mM, KPSS). Aortic rings were initially equilibrated at a resting tension of 1 g in normal Ca^2+-free PSS for 45 minutes. The bath medium was then replaced with Ca^2+-free KPSS for 45 minutes to determine a reference contraction to Ca^2+ (3×10^−3 M). Following a 30 minute re-equilibration period with Ca^2+-free PSS, the cumulative contractile responses to Ca^2+ (10^−5−3×10^−3 M) were determined in KPSS in the presence of a range of concentrations (10^−8-10^−4 M) of vehicle, 3′,4′-dihydroxyflavonol, 3-hydroxyflavone-3-hemiadipate, 3′,4′-dihydroxy-3-hemiadipate, 3-hydroxyflavone-3-phosphate. A 20 minute incubation period was allowed for the flavonoids before examining the responses to Ca^2+.
To determine the effect of flavonoids on responses to the influx of extracellular Ca^2+, contractile responses to exogenous application of Ca^2+ were examined in the presence of flavonoids in Ca^2+-free high-K^+ solution (60 mM, K+-PSS). Aortic rings were initially equilibrated at a resting tension of 1 g in Ca^2+-free PSS for 45 minutes. The bath medium was then replaced with Ca^2+-free K+-PSS for 45 minutes to determine a reference contraction to added Ca^2+ (3 mM). Following a 30 minute re-equilibration period with Ca^2+-free PSS, the cumulative contractile responses to Ca^2+ (10^−5−3×10^−3 M) were determined in K^+ PSS in the presence of vehicle (0.1% DMSO), or a range of concentrations (10^−7-10^−4 M) of 3′-hydroxyflavonol, F3HA, DiOHF3HA or F3P. A 20 minute incubation period was allowed for the flavonoids before examining the responses to Ca^2+. Experiments were conducted in the presence and absence of BuCHE (1000 U/L) to cleave the adipate in F3HA and DiOHF3HA. In experiments using F3P, phosphatase (1000 U/L) was used in some experiments to cleave the phosphate.

[5] = 30 min after DiOHF3HA 3 mg/kg iv

| Compound | change in heart rate (HR) [1] | change in mean arterial pressure (MAP) [1] | infarct size normalized to the area at risk (IS/AR) [2] [%] | infarct size normalized to the area at risk (IS/AR) [3] [%] | Maximum Contraction (percent 3 mM Ca^2+) ([4]; 10^−4 M, without BuCHE) | PE-induced increase in arterial pressure [1, 5] | depressor response to ACh [1, 5] | regression of LAD flow after reperfusion hyperperfusion ([3]; 6.6 mg/kg vs control) | haemodynamic indices (arterial pressure, HR, LV-EDP, dP/dtmax) during infusion ([3]; 20-min i.v. infusion, 6.6 mg/kg) | increase in plasma creatine kinase ([3]; after 1 hour ischaemia and 3 hours reperfusion) [U/L] | increase in plasma lactate dehydrogenase ([3]; after 1 hour ischaemia and 3 hours reperfusion, n=4) [U/L] | effect on infarct size / cardioprotection [3] | effect on infarct size / cardioprotection ([3]; listed as Adipate) | Maximum Contraction (percent 3 mM Ca^2+) ([4]; 10^−4 M + BuCHE) | effect on Ca^2+-induced contraction ([4]; alone, highest concentration 10^−4 M) | effect on Ca^2+-induced contraction ([4]; alone, over the concentration range tested) | effect on Ca^2+-induced contraction ([4]; in the presence of BuCHE or phosphatase (1000 U/L)) |
| --- | --- | --- | --- | --- | --- | --- | --- | --- | --- | --- | --- | --- | --- | --- | --- | --- | --- |
| O=c1c(O)c(-c2ccc(O)c(O)c2)oc2ccccc12 [DiOHF, 3′,4′-Dihydroxyflavonol, reference compound] | dose-dependent decrease in HR | dose-dependent decreases in MAP | 47±8 | 73 | 18 ± 2 | – | – | – | – | – | – | – | – | – | – | – | – |
| O=C(O)CCCCC(=O)Oc1c(-c2ccc(O)c(O)c2)oc2ccccc2c1=O [DiOHF3HA, 3′,4′-dihydroxyflavone-3-hemiadipate] | dose-dependent decrease in HR; also recorded: dose-dependent decreases; also recorded: concentration dependent decreases | dose-dependent decrease in MAP; also recorded: dose-dependent decreases; also recorded: concentration dependent decreases | 49±8 | 64 | 101 ± 1 | diminished; also recorded: attenuated the PE-induced increase in arterial pressure | significantly enhanced the depressor response to ACh | more rapid | did not alter haemodynamic indices; also recorded: unchanged | 1579±936 | 67±32 | dose-related reduction in infarct size; also recorded: equivalent degree of cardioprotection to the parent compound | significant difference in infarct size | 35 ± 6 | slight Ca2+ inhibitory action | little effect on calcium-induced contraction | markedly enhanced the inhibitory effect; also recorded: equivalent inhibitory effect to DiOHF; also recorded: inhibit calcium-induced contraction |
